The text below walks through data of patent US11471468B2, “Methods and systems for conditioning of particulate crystalline materials” (Pearl Therapeutics, Inc., priority 2013, dated 2022).

Where only a bound is given, the exact number is not on record here.

What all share (assay type): physicochemical
Series [1] is described as follows: Particle size distribution by laser diffraction (Sympatec) after processing. The settings on record: for D10 / D50 / D90: micronized/annealed GP, scale-up ~1 kg batches, mean of n=3 replicates per collector; for Physical stability after micronization judged from size distribution: laser diffraction, Tables 4 and 5; for Particle Size Distribution Initial Span / Particle Size Distribution Initial X50 / Particle Size Distribution Initial X90: micronized sucrose. An excerpt:
When referred to herein, the term “optical diameter” indicates the size of a particle as measured using a laser diffraction particle size analyzer equipped with a dry powder dispenser (e.g., Sympatec GmbH, Clausthal-Zellerfeld, Germany).
(§1) A portion of the micronized GP was also conditioned using an in-process conditioning system wherein nitrogen conditioning gas was supplied to the in-process conditioning system and was controlled for flow rate, temperature and humidity. The conditioning gas was humidified through a droplet evaporation chamber after which it was directed to a mixing zone. In the mixing zone, the conditioning gas was mixed with the jet-milled aerosol comprising the micronized GP. The aerosol then entered a conditioning zone where annealing of the micronized GP occurred. The particle residence time through the conditioning zone was adjusted by means of the conditioning zone chamber geometry and/or the gas flow rate through the conditioning zone chamber. After passing through the conditioning zone, the micronized GP particles reached the cyclone-collection zone where the solid particles were separated from the gas phase and transported to a collection vessel. Upon completion of the batch processing, the collector was disengaged and transferred to a glove box for sampling. The sampling occurred in a <5% relative humidity environment. Samples were then analyzed for particle size distribution and amorphous content.
(§2) Both micronized sucrose batches were analyzed for particle size distribution by Sympatec laser diffraction.

A short description of series [2]: Amorphous content by (dynamic) vapor sorption. As to conditions: for Calculated Amorphous Content, Collector 1 / Calculated Amorphous Content, Collector 2: conditioned GP, dynamic vapor sorption, n=2 replicates per collector; for Amorphous content by ethanol vapor sorption isotherm / Amorphous content by water vapor sorption isotherm: 25° C.; for Amorphous content by ethanol vapor sorption isotherm: FIG. 9 / FIG. 11; for Amorphous content by water vapor sorption isotherm: FIG. 13.
Text: as §1
(§3) The amorphous content by vapor sorption and particle morphology for both batches were also assessed. FIG. 9 provides the ethanol vapor sorption isotherm at 25° C. for both batches of micronized budesonide.
(§4) The amorphous content by vapor sorption and particle morphology for both batches were also assessed. FIG. 11 provides the ethanol vapor sorption isotherm at 25° C. for both batches of micronized fluticasone.
All batches were also analyzed for amorphous content by dynamic vapor sorption using n=2 replicates per collector.
(§5) The amorphous content by vapor sorption and particle morphology for both batches of micronized sucrose were also assessed. FIG. 13 provides the water vapor sorption isotherm at 25° C. for both batches of micronized sucrose.

The nature of series [3]: Particle size distribution by laser diffraction (Sympatec) after processing. The settings on record: for D10 / D50 / D90 / Span: micronized fluticasone propionate; for Particle Size Distribution Initial X10: micronized sucrose.
Series [4] is described as follows: Particle morphology by electron micrograph / SEM. The settings on record: FIG. 10 / FIG. 12 / FIG. 14. The procedure:
as §3, §4, §5

Series [5] in a line: Physical stability: particle size distribution and fusing after 1-day exposure to 25° C. and 60% relative humidity. As to conditions: micronized sucrose; for Physical Stability: 25° C./60% RH; for Stability of powder on exposure: Sucrose A by visual observation, Sucrose B exposed to 25° C./60% RH.
Text: When used to refer to the conditioned particulate material described herein, the terms “physical stability” and “physically stable” refer to a composition that is resistant to one or more of particle fusing, aggregation, agglomeration, and particle size changes. In certain embodiments, physical stability may be evaluated through exposing the particulate material to accelerated degradation conditions, such as increased temperature and/or humidity as described herein.
as §2

The nature of series [6]: Stability diagram (glass transition plasticization curve combined with sorption isotherm). As to conditions: from stability diagram FIG. 18. The text has this: Crystallization of an amorphous phase typically occurs rapidly when the amorphous material is exposed to conditions that exceed its glass transition temperature, usually twenty degrees Celsius above the glass transition temperature (Lechuga-Ballesteros, D.; Miller, D. P.; Zhang, J., Residual water in amorphous solids, measurement and effects on stability. In Progress in Amorphous Food and Pharmaceutical Systems, Levine, H., Ed. The Royal Society of Chemistry: London, 2002; pp 275-316). Exposure of amorphous material to temperature in excess of the glass transition can be achieved in the absence of any solvent by exposing the amorphous material to a stream of hot air above its glass transition temperature. However, the glass transition temperature is also a function of the fraction of solvent present in the amorphous material, an effect known as plasticization.
In addition, the solvent content held in an amorphous material is a function of the vapor concentration of the solvent surrounding the amorphous solid. The sorption isotherm of a given material is a representation of the amount of solvent in the amorphous material as a function of the solvent activity (which is proportional to the solvent vapor pressure to saturation solvent vapor pressure ratio) at a given temperature. […]

Setting [7] is: listed as Batch B - Collector 1.
Where [8] appears, read: listed as Batch B - Collector 2.
[9] abbreviates: listed as Batch C - Collector 1.
Setting [10] is: listed as Batch C - Collector 2.

In series [1] (setting [7]), `C[N+]1(C)CCC(OC(=O)C(O)(c2ccccc2)C2CCCC2)C1` (single isomer, unassigned) [Batch B, Glycopyrrolate] gave a D10 of 0.52 μm, a D50 of 1.47 μm and a D90 of 3.02 μm. In series [1] (setting [8]), the D10 amounted to 0.52 μm, the D50 was 1.46 μm and the D90 is given as 2.99 μm. For the same molecule, in series [2], the “Calculated Amorphous Content, Collector 1” value is on record as 2.65% and the “Calculated Amorphous Content, Collector 2” value is given as 2.40%.
With `C[N+]1(C)CCC(OC(=O)C(O)(c2ccccc2)C2CCCC2)C1` (single isomer, unassigned) [Batch C, Glycopyrrolate], in series [1] (setting [9]), the D10 amounted to 0.52 μm, the D50 is listed as 1.47 μm and the D90 was found to be 3.03 μm. Besides, in series [1] (setting [10]), the D10 came to 0.51 μm, the D50 is listed as 1.45 μm and the D90 is 2.96 μm. In series [2], the “Calculated Amorphous Content, Collector 1” value is 2.65% and the “Calculated Amorphous Content, Collector 2” value is 2.45%.
Take `CCC(=O)O[C@]1(C(=O)SCF)[C@H](C)C[C@H]2[C@@H]3C[C@H](F)C4=CC(=O)C=C[C@]4(C)[C@@]3(F)[C@@H](O)C[C@@]21C` [Micronized Fluticasone propionate, Batch 1 (unannealed)]: the “Physical stability after micronization judged from size distribution” value in series [1] is given as “agglomeration”. The “Ethanol relative pressure at which weight loss is seen” value in series [2] (ethanol vapor sorption isotherm at 25° C.) was found to be 60 % p/po. Besides, the “Amorphous content by ethanol vapor sorption isotherm” value in series [2] was “remained substantially amorphous”. In series [3], this molecule showed a D10 of 0.5 μm, a D50 of 1.5 μm, a D90 of 3.4 μm and a Span of 2.0.
Take `CCC(=O)O[C@]1(C(=O)SCF)[C@H](C)C[C@H]2[C@@H]3C[C@H](F)C4=CC(=O)C=C[C@]4(C)[C@@]3(F)[C@@H](O)C[C@@]21C` [Micronized Fluticasone propionate, Batch 2 (annealed)]: in series [1], the “Physical stability after micronization judged from size distribution” value is given as “good physical stability”. In series [2], the “Amorphous content by ethanol vapor sorption isotherm” value is “stable and showed no crystallization event”. In series [3], this molecule displayed a D10 of 0.5 μm, a D50 of 1.4 μm, a D90 of 3.1 μm and a Span of 1.9. Further, the “Particle morphology by SEM, annealed compared with unannealed material” value in series [4] was “smoother surfaces and more rounded edges”.
For `OC[C@H]1O[C@@](CO)(O[C@H]2O[C@H](CO)[C@@H](O)[C@H](O)[C@H]2O)[C@@H](O)[C@@H]1O` [Sucrose A, Sucrose], in series [1] (listed as Sucrose 1), the Particle Size Distribution Initial Span worked out at 2.4, the “Particle Size Distribution Initial X50” value came out at 1.7 μm and the “Particle Size Distribution Initial X90” value came out at 4.5 μm. The “Water relative pressure at which weight loss is seen” value in series [2] (water vapor sorption isotherm at 25° C.) was found to be 30 % p/po. Moreover, the “Amorphous content by water vapor sorption isotherm” value in series [2] was “remained substantially amorphous”. Besides, the “Particle Size Distribution Initial X10” value in series [3] (listed as Sucrose 1) is reported as 0.5 μm. Moreover, the “Physical Stability” value in series [5] (listed as Sucrose 1) is on record as “Unstable,”. Further, in series [5], the “Stability of powder on exposure” value is “fusing of the material”.
For `OC[C@H]1O[C@@](CO)(O[C@H]2O[C@H](CO)[C@@H](O)[C@H](O)[C@H]2O)[C@@H](O)[C@@H]1O` [Sucrose B, Sucrose], in series [1] (listed as Sucrose 2), the Particle Size Distribution Initial Span came out at 1.9, the “Particle Size Distribution Initial X50” value is listed as 2.2 μm and the “Particle Size Distribution Initial X90” value is 4.9 μm. Also, the “Amorphous content by water vapor sorption isotherm” value in series [2] is “stable and showed no crystallization event”. The “Particle Size Distribution Initial X10” value in series [3] (listed as Sucrose 2) turned out to be 0.6 μm. Besides, in series [4], the “Particle morphology by SEM, annealed compared with unannealed material” value was “smoother surfaces and more rounded edges”. Also, in series [5], the “Physical Stability” value is given as “Stable,” and the “Stability of powder on exposure” value was “good stability”. In series [5] (T = 1 day at 25° C./60% RH), the Particle Size Distribution T = 1 day at 25° C./60% RH Span stood at 1.9, the “Particle Size Distribution T = 1 day at 25° C./60% RH X10” value came out at 0.7 μm, the “Particle Size Distribution T = 1 day at 25° C./60% RH X50” value stood at 2.5 μm and the “Particle Size Distribution T = 1 day at 25° C./60% RH X90” value is listed as 5.2 μm.
Take `C[N+]1(C)CCC(OC(=O)C(O)(c2ccccc2)C2CCCC2)C1.[Br-]` (stereo not shown) [glycopyrrolate, 3-[(cyclopentylhydroxyphenylacetyl)oxy]-1,1-dimethylpyrrolidinium bromide]: the “RH required to promote annealing” value in series [6] (at 60° C.) is listed as 10 % RH. Also, the “RH at which fast crystallization of amorphous material will occur” value in series [6] (in the range of 20-40° C.) was more than 50%.
